Measurements published in patent EP4656642A1, “ESTROGEN RECEPTOR PROTEOLYSIS TARGETING CHIMERA COMPOUND AND USE THEREOF” (GAN & LEE PHARM CO., LTD, priority 2023, dated 2024).

Columns and labels:
Format in all cases: cell-based
ERα [1] = target: T1, ERα (Homo sapiens, UniProt P03372); test: Degradation of ERα in MCF-7 cells (immunoblotting, 4 h)
T1 sequence (P03372 1-595): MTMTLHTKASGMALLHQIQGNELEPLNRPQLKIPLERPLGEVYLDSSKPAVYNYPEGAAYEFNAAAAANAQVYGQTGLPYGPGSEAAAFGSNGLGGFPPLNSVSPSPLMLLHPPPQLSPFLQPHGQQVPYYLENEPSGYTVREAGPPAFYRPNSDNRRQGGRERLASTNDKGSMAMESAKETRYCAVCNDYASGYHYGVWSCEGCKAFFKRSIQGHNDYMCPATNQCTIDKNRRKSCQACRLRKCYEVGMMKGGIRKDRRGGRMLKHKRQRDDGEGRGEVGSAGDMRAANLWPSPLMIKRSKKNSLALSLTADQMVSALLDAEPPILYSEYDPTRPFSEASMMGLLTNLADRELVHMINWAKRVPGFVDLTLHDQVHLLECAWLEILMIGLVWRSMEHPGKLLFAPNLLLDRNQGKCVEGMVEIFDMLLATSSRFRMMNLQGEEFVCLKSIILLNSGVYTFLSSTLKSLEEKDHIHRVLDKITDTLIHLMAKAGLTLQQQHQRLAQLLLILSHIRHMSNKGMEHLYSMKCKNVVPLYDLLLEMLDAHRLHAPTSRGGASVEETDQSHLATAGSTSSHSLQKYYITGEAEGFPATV
Summary of the method: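 Degradation rate reflects ERα band intensity, corrected to an internal reference protein, relative to control. Values come from Western blotting of lysates from MCF-7 cells exposed 4 h at 37°C to compounds at final concentrations of 0.15-1000nM.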

ERα [2] = target: T1, ERα; test: Degradation of ERα in T-47D cells (immunoblotting, 4 h); parameters: host or cells: T-47D
Summary of the method: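 ERα protein levels were assessed by immunoblot of RIPA lysates (with protease inhibitor) after 4 h exposure at 37°C. Compound was added in DMSO to T-47D cells at final concentrations of 0.15-1000 nM.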

T-47D cells = test: Inhibition of cell proliferation in T-47D cells (CCK-8, 6 days); details: 6 days of treatment, Table 3
Summary of the method: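 Viability read-out was CCK-8 after 6 days of compound treatment (37 °C, 5% CO2) across graded concentrations. Cells were T-47D seeded at 3,000 per well in 1640 medium plus 10% FBS. IC50 was calculated against proliferation.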

MCF-7 cells = test: Inhibition of cell proliferation of MCF-7 cells (CCK-8, 9 days); details: treated for 9 days, CCK-8 kit (Table 6)
Summary of the method: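 Read-out was CCK-8 viability after 9-day continuous exposure (37°C, 5% CO2) of MCF-7 cells plated at 800/well in 10% FBS DMEM across several compound concentrations. Values are proliferation IC50s.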

Structure (SMILES)	Degradation rate (%) of ERα in MCF-7 cells (ERα [1]; 1nM compound)	Degradation rate (%) of ERα in MCF-7 cells (ERα [1]; 10nM compound)	Degradation rate (%) of ERα in T-47D cells (ERα [2]; 1nM compound)	Degradation rate (%) of ERα in T-47D cells (ERα [2]; 10nM compound)	IC50 (T-47D cells)	IC50 (MCF-7 cells)
O=C1CCC(N2Cc3c(ccc4c3OCC43CCN(C4CCN(C5CC6(CCN(c7ccc([C@@H]8c9ccc(O)cc9CC[C@@H]8c8ccccc8)cc7)CC6)C5)[C@@H](C(=O)N5CC(F)(F)C5)C4)CC3)C2=O)C(=O)N1 (stereo partly drawn) [A98]	48%	90%	51%	83%	1.19 nM	5.12 nM
O=C1CCC(N2Cc3c(ccc4c3OCC43CCN(C4CCN(C5CC6(CCN(c7ccc([C@@H]8c9ccc(O)cc9CC[C@@H]8c8ccccc8)cc7)CC6)C5)[C@@H](C(=O)N5CCC(F)(F)CC5)C4)CC3)C2=O)C(=O)N1 (stereo partly drawn) [A99]	35%	77%	51%	82%	2.07 nM	4.19 nM
O=C1CCC(N2Cc3c(ccc4c3OCC43CCN(CC4CCN(C(=O)C5CCN(c6ccc([C@@H]7c8ccc(O)cc8CC[C@@H]7c7ccccc7)cc6)CC5)CC4)CC3)C2=O)C(=O)N1 (stereo partly drawn) [A100]	65%	73%	77%	84%	0.84 nM	2.27 nM
O=C1CCC(N2Cc3c(ccc4c3OCC43CCN(C(=O)C4CCC(N5CCC(C#Cc6ccc([C@@H]7c8ccc(O)cc8CC[C@@H]7c7ccccc7)cc6)CC5)CC4)CC3)C2=O)C(=O)N1 (stereo partly drawn) [A101]	52%	61%	44%	45%	0.91 nM	850 nM
O=C1CCC(N2Cc3c(ccc4c3OCC43CCN(CC4CCN(CC5CCN(c6ccc([C@@H]7c8ccc(O)cc8CC[C@@H]7c7ccccc7)cc6)CC5)CC4)CC3)C2=O)C(=O)N1 (stereo partly drawn) [A102]	36%	73%	16%	51%	20.2 nM	107 nM
C[C@@H]1Cc2c([nH]c3ccccc23)[C@@H](c2c(F)cc(N3CCC4(CCC(N5CCC6(CC5)COc5c6ccc6c5CN(C5CCC(=O)NC5=O)C6=O)CC4)CC3)cc2F)N1CC(F)F (stereo partly drawn) [A103]	37%	70%	29%	68%	2.99 nM	13.6 nM
C[C@@H]1Cc2c([nH]c3ccccc23)[C@@H](c2c(F)cc(N3CC4(CCC(N5CCC6(CC5)COc5c6ccc6c5CN(C5CCC(=O)NC5=O)C6=O)CC4)C3)cc2F)N1CC(F)F (stereo partly drawn) [A104]	15%	70%	35%	72%	17.1 nM	30.3 nM
O=C1CCC(N2Cc3c(ccc4c3OCC43CCN(CC4(F)CCN(C(=O)C5CCN(c6ccc([C@@H]7c8ccc(O)cc8CC[C@@H]7c7ccccc7)cc6)CC5)CC4)CC3)C2=O)C(=O)N1 (stereo partly drawn) [A105]	7%	43%	38%	73%	1.3 nM	26600 nM
C[C@@H]1Cc2c([nH]c3ccccc23)[C@@H](c2c(F)cc(N3CCC(C(=O)N4CCC(N5CCC6(CC5)COc5c6ccc6c5CN(C5CCC(=O)NC5=O)C6=O)CC4)CC3)cc2F)N1CC(F)F (stereo partly drawn) [A106]	19%	62%	43%	74%	1.2 nM	190 nM
N#CC1(CN2CCC3(CC2)COc2c3ccc3c2CN(C2CCC(=O)NC2=O)C3=O)CCN(C(=O)C2CCN(c3ccc([C@@H]4c5ccc(O)cc5CC[C@@H]4c4ccccc4)cc3)CC2)CC1 (stereo partly drawn) [A108]	22%	46%	41%	73%	1.8 nM	7390 nM
CC1(CN2CCC3(CC2)COc2c3ccc3c2CN(C2CCC(=O)NC2=O)C3=O)CCN(C(=O)C2CCN(c3ccc([C@@H]4c5ccc(O)cc5CC[C@@H]4c4ccccc4)cc3)CC2)CC1 (stereo partly drawn) [A109]	10%	54%	31%	75%	2.93 nM	42.8 nM
C[C@@H]1Cc2c([nH]c3ccccc23)[C@@H](c2c(F)cc(N3CCC4(CCN(CC(=O)N5CCC6(CC5)COc5c6ccc6c5CN(C5CCC(=O)NC5=O)C6=O)C4)CC3)cc2F)N1CC(F)F (stereo partly drawn) [A111]	39%	74%	49%	82%	1.2 nM	93.6 nM
C[C@@H]1Cc2c([nH]c3ccccc23)[C@@H](c2c(F)cc(N3CCC4(CCN(CC(=O)N5CCC6(CC5)COc5c6ccc6c5CN(C5CCC(=O)NC5=O)C6=O)CC4)CC3)cc2F)N1CC(F)F (stereo partly drawn) [A112]	15%	63%	40%	78%	2.01 nM	59.4 nM
CCOC(=O)[C@H]1CC(N2CCC3(CC2)COc2c3ccc3c2CN(C2CCC(=O)NC2=O)C3=O)CCN1C1CC2(CCN(c3ccc([C@@H]4c5ccc(O)cc5CC[C@@H]4c4ccccc4)cc3)CC2)C1 (stereo partly drawn) [A113]	4%	52%	26%	64%	4.61 nM	21.6 nM
C[C@@H]1Cc2c([nH]c3ccccc23)[C@@H](c2c(F)cc(N3CCN(C[C@H]4CC[C@H](C(=O)N5CCC6(CC5)COc5c6ccc6c5CN(C5CCC(=O)NC5=O)C6=O)CC4)CC3)cc2F)N1CC(F)F (stereo partly drawn) [A114]	46%	62%	48%	73%	1.18 nM	10.3 nM
O=C1CCC(N2Cc3c(ccc4c3OCC43CCN(C[C@H]4CC[C@H](C#Cc5ccc([C@@H]6c7ccc(O)cc7CC[C@@H]6c6ccccc6)cc5)CC4)CC3)C2=O)C(=O)N1 (stereo partly drawn) [A115]	0%	16%	17%	43%	10.9 nM	60.6 nM
O=C1CCC(N2Cc3c(ccc4c3OCC43CCN(C4CCN(CC5CCN(c6ccc([C@@H]7c8ccc(O)cc8CC[C@@H]7c7ccccc7)cc6)CC5)C(=O)C4)CC3)C2=O)C(=O)N1 (stereo partly drawn) [A116]	25%	4%	28%	23%	1.61 nM	25200 nM
